Values after ≈ are worked out from the molar mass of the structure shown.
Experiments:
[1] = Solubility of butaselen in water; type: physicochemical
[2] = system: U87 brain glioma subcutaneous model; assay: Gavage administration experiment of U87 brain glioma subcutaneous model in Balb/c nude mice; type: in vivo; conditions: BS 90 mg/kg, oral administration (i.g., q.d.), 11 days
Description: After 2 days of animal acclimation, qualified animals were retained and randomized into 6 groups, with 7 animals in each group. Mice were inoculated subcutaneously in right axillas with U87 cells at 2×10^6/mouse. Administration was started to be performed 12 days after inoculation, which was day 0 of treatment. Administration was performed for a total of 11 days.
A drug treatment regimen was as follows: Blank control group (0.5% CMC-Na, i.g., q.d.); TMZ group (30 mg/kg, i.g., q.d.); BSL group (10 mg/kg, i.g., q.d.); BSM group (90 mg/kg, i.g., q.d.); BSH group (180 mg/kg, i.g., q.d.); and BSM+TMZ group (30 mg/kg of TMZ, 90 mg/kg of BS, i.g., q.d.).
The general condition of the animals and the time of tumor occurrence were recorded daily during the experiment, a long diameter and a short diameter of tumors in the mice were recorded daily, and a tumor volume was calculated according to a formula: long diameter×(short diameter)^2×0.5236, and a body weight of the animals were measured every 3 days. After 18 days of administration, anesthesia was performed with chloral hydrate, and eyeballs were removed for blood collection. […] Distribution of the Se content in brain tissue was detected by Inductively coupled plasma-Mass Spectrometry (ICP-MS).

[3] = system: U87 brain glioma subcutaneous model; assay: Administration by injection (intraperitoneal) experiment of U87 brain glioma subcutaneous model in Balb/c nude mice; type: in vivo
Source text: After 2 days of animal acclimation, qualified animals were retained and randomized into 5 groups, with 6 animals in each group of a control group, a TMZ group, and a BS group. There were 5 animals in each group of the BS+TMZ treatment group and the BS+TMZ prevention group. Mice in the BS group were inoculated subcutaneously in right axillas with U87 cells at 2×10^6/mouse. Administration was started to be performed 14 days after inoculation, which was day 0 of treatment. Administration was performed for a total of 18 days.
A drug treatment regimen was as follows: Blank control group (0.9% NaCl, i.p., q.d.); TMZ group (10 mg/kg, i.p., qd.); BS group (30 mg/kg, i.p., q.d.); BS+TMZ treatment group (10 mg/kg of TMZ, i.p., qd., and 90 mg/kg of BS, i.g., q.d.); BS+TMZ prevention group (10 mg/kg of TMZ, i.p., qd., and 90 mg/kg of BS, i.g., q.d.). […] were injected into tail veins.
(§1) The general condition of the animals and the time of tumor occurrence were recorded daily during the experiment, a long diameter and a short diameter of tumors in the mice were recorded daily, and a tumor volume was calculated according to a formula: long diameter×(short diameter)^2×0.5236, and a body weight of the animals were measured every 3 days. After 18 days of administration, anesthesia was performed with chloral hydrate, and eyeballs were removed for blood collection. The mice were sacrificed, tumors, hearts, livers, spleens, lungs, kidneys, thymuses, whole brains, and intestines were rapidly isolated, blood stains were washed away with ice saline, the tumors, hearts, livers, spleens, lungs, kidneys, thymuses, whole brains, and intestines were wiped to be dry with filter paper, whether there were lesions in internal organs of the animals were observed, and the tumors, hearts, livers, spleens, lungs, kidneys, thymuses, whole brains, and intestines were weighed. A portion of tumor tissue was taken and stored in liquid nitrogen for RNA and protein extraction. Another portion of tumor tissue was placed in a tissue fixative solution for fixation. Distribution of the Se content in brain tissue was detected by Inductively coupled plasma-Mass Spectrometry (ICP-MS).
Female six-week-old Balb/c Nude mice were selected to establish an animal model and inoculated subcutaneously with U87 human-derived glioma cells at 2×10^6/mouse. Administration was started to be performed on day 14 after inoculation, and was continued to be performed for 18 days.
To compare the difference in efficacy between oral gavage administration and intraperitoneal injection administration, the control group, the TMZ group (10 mg/Kg) and the BS group (30 mg/Kg) were administered intraperitoneally once a day in this round of experiment. The mice in the control group were given 0.9% NaCl.
To compare the therapeutic efficacy and preventive efficacy of the combined application of BS and TMZ, combined administration groups were set in this round of experiment: a BS+TMZ treatment group (90 mg/Kg of BS&10 mg/Kg of TMZ) and a BS+TMZ prevention group (90 mg/Kg of B S& 10 mg/Kg of TMZ). The B S+TMZ treatment group was abbreviated as a BS+TMZ (A) group, and tumors with a volume of more than 20 mm^3 were normally formed in the mice on day 14 after U87 inoculation, and the administration was started to be performed to observe the efficacy of the combined use on inhibiting tumor proliferation. The BS+TMZ prevention group is abbreviated as a BS+TMZ (B) group, and tumors with a volume of less than 20 mm^3 were formed in the mice on day 14 after U87 inoculation, and the administration was started to observe the efficacy of the combined use on the prevention of tumor formation. The mice in the combined groups were administered by single daily oral gavage. The start time of administration was Day 1, a second day of administration was Day 2, and so on.

[4] = Distribution of BS in brain tissue of U87 nude mice by ICP-MS (selenium content); type: in vivo; conditions: Balb/c nude, mouse, BS 30 mg/kg, injection dosage form (intraperitoneal), after the experiment, calculated from selenium content
Description: as §1, with “A portion of tumor tissue was taken and stored in liquid nitrogen for RNA and protein extraction. Another portion of tumor tissue was placed in a tissue fixative solution for fixation.” left out
Brain tissues of the mice after the experiment of BS+TMZ gavage (90+10 mg/kg) and BS intraperitoneal injection (30 mg/kg) were taken and detected by ICP-MS. By detecting the selenium content per gram of brain tissue, the BS content per gram of brain tissue was calculated. […]

[5] = Distribution of BS in brain tissue of ICR mice after intraperitoneal injection, ICP-MS; type: in vivo; conditions: female, mouse, ip, intraperitoneal injection 90 mg/kg
Description: The distribution of BS in mouse brain tissue was examined as follows: Brain glioma is located in the skull and has a special lesion location. Thus, it is critical whether a drug can cross the blood-brain barrier and act at the lesion site. In order to detect whether BS can reach brain tissue through the blood-brain barrier, female six-week-old ICR mice were selected for the study. The mice were intraperitoneally injected with 90 mg/kg of BS, and brain tissues before administration and brain tissues at 0.5 h, 1 h, 2 h and 3 h after administration were taken for ICP-MS detection. The BS content per gram of brain tissue was calculated by detecting the selenium content per gram of brain tissue.

[6] = system: high-grade astrocytoma in human spinal cord; assay: Subcutaneous patient-derived xenograft (PDX) mouse model of high-grade astrocytoma in human spinal cord; type: in vivo, NPG mice; conditions: for tumor sizes at the end of the experiment: no unit at the values (tumor volume formula in mm^3), in mm³; for tumor volume inhibition rate: end of experiment
Description: • 1) Grouping of animals: the animals were subcutaneously inoculated with tumor tissue pieces, and after tumors were formed in the animals, the animals were grouped based on a principle of a similar mean tumor volume; • 2) Mode of administration: intraperitoneal injection of BS and TMZ (i.p., q.d.×17 days); • 3) Detection indexes: mouse body weight and subcutaneous tumor volume.
BS injections, with a drug content being 30 mg of BS and 90 mg of BS; and 1 mg of TMZ was weighed and dissolved in 1 ml of 0.5% CMC-Na and the obtained solution was uniformly dispersed by an ultrasound-assisted manner to obtain a TMZ drug solution, which was prepared immediately before use each time.
• Animal species: NPG mice, Animal grade: SPF grade, and Sex and number: female, 32 • Animal weight range: 20-25 g, Animal age range: 5-6 weeks old, and Animal source: Beijing Vitalstar Biotechnology Co., Ltd.
The animals were randomly divided into four groups according to Table 5, with 8 animals in each group of a control group, a BSL group, a BSH group and a TMZ group.
Tumor masses (2-3 mm^3) of high-grade astrocytoma in a human spinal cord were prepared and inoculated in right axillas of NPG mice, and after inoculation, a mouse status was routinely observed and the tumor size was measured. Screening was performed according to the tumor volume, animals with a tumor volume of 450 mm^3 were selected for the experiment, and those with an excessive tumor volume and no tumor formation were not selected. A total of 32 suitable tumor-bearing animals were screened for the experiment, and were divided into 4 experimental groups, with 8 mice in each group. The day of first administration was recorded as D1, a second day of administration was recorded as D2, and so on. All animals were administered through single daily intraperitoneal injection for 24 consecutive days.
During the experiment, a long diameter and a short diameter of the tumors in all the animals were measured daily. And a tumor volume (mm^3) was calculated and a formula was as follows: Tumor volume=0.5236×long diameter×short diameter×short diameter.

[7] = Body weight and general condition of U87 tumor-bearing nude mice during administration; type: in vivo, Balb/c nude mice
Description: as §1

[8] = Body weight and clinical observation of NPG mice during administration; type: in vivo; conditions: BS 30 and 90 mg/kg, intraperitoneal injection
Description: All animals were observed once a day during the experiment period. The observation content included death or dying, feces, a feeding status, a mental status, and behavioral activities, etc. If any abnormal situation was found, it was recorded in time. All animals were weighed once before grouping, three times per week after administration, and once before euthanasia.
No clinical abnormal symptoms or animal deaths due to drug toxicity were observed during this experiment.

[9] = BS 30 mg/kg, intraperitoneal injection, q.d., 18 days, end of experiment
[10] = BS 30 mg/kg, intraperitoneal, end of experiment
[11] = TMZ 10 mg/kg, intraperitoneal, experiment in this group ended early on day 12

Compound: O=c1c2ccccc2[se]n1CCCCn1[se]c2ccccc2c1=O [BS, butaselen]
- solubility [1]: ~0.15 µg/mL (≈ 0.333 µM)
- Tumor volume (mm^3) [2]: 122.05±33.15 mm^3
- Volume inhibition rate (%) [2]: 78.87%
- Tumor volume (mm^3) [3, 9]: 105.18±66.62 mm^3
- Volume inhibition rate (%) [3, 9]: 81.12%
- Tumor weight [3, 10]: 0.13 ± 0.08 g
- Weight inhibition rate (%) [3, 10]: 66.67%
- concentration at 18 days [4]: 121 ng/g
- concentration at 0.5 h ([5]; 0.5 h after administration): 439 ng/g
- concentration at 1 h ([5]; 1 h after administration): 372 ng/g
- concentration at 2 h ([5]; 2 h after administration (peak)): 528 ng/g
- concentration at 3 h ([5]; 3 h after administration): 419 ng/g
- tumor sizes at the end of the experiment ([6]; BS 30 mg/kg i.p. q.d.): 4593.83±2725.69
- tumor sizes at the end of the experiment ([6]; BS 90 mg/kg i.p. q.d.): 2999.76±2191.03
- tumor volume inhibition rate ([6]; high-dose BS group (90 mg/kg i.p.)): 35.19%
- tumor volume inhibition rate ([6]; low-dose BS group (30 mg/kg i.p.)): -10.54%
- toxic and side effects on tumor-bearing nude mice ([7]; BS group, BS+TMZ (A) and (B) groups, normal diet, activities, mental status): no obvious toxic and side effects
- toxic and side effects on the NPG mice [8]: no obvious toxic and side effects
- weight loss ([8]; NPG mice): no significant weight loss

Compound: Cn1nnc2c(C(N)=O)ncn2c1=O [TMZ, temozolomide, reference compound]
- Tumor volume (mm^3) [3, 11]: 343.23±245.20 mm^3
- Tumor weight [3, 11]: 0.19 ± 0.08 g
- tumor sizes at the end of the experiment ([6]; TMZ 5 mg/kg i.p. q.d.): 2693.29±1682.23
- tumor volume inhibition rate ([6]; TMZ group (5 mg/kg i.p.)): 27.82%
- body weight of the mice ([7]; TMZ group (30 mg/Kg as printed), U87 tumor-bearing nude mice, group ended on day 12): significantly decreased

Source: patent EP4620468A1, “BUTASELEN-CYCLODEXTRIN INCLUSION COMPLEX, PHARMACEUTICAL COMPOSITION, METHOD FOR PREPARING SAME, AND USE THEREOF” (Shanghai Yuanxi Medicine Corp., priority 2022, dated 2024)
